Measurements from PubChem BioAssay (NCI).
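Briefly, cells in 96-well plates were exposed to five compound concentrations for 48 h, and endpoints were estimated by linear interpolation. At the TGI there is no net growth.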

How the values were obtained:
Experiment in all cases: DTP human tumour cell line panel, 48 h
[1] = test system: OVCAR-5 ovarian
[2] = test system: NCI-H23 lung
[3] = test system: RXF-631 renal
[4] = test system: MALME-3M melanoma
[5] = test system: OVCAR-3 ovarian
[6] = test system: HOP-18 NSCLC
[7] = test system: SF-268 CNS
[8] = test system: SF-539 CNS
[9] = test system: HOP-62 NSCLC
[10] = test system: HCT-15 colon
[11] = test system: KM20L2 colon
[12] = test system: UO-31 renal
[13] = test system: DMS 114 small cell lung
[14] = test system: RXF 393 renal
[15] = test system: OVCAR-8 ovarian
[16] = test system: HCT-116 colon
[17] = test system: M14 melanoma
[18] = test system: KM12 colon
[19] = test system: ACHN renal
[20] = test system: CAKI-1 renal
[21] = test system: 786-0 renal
[22] = test system: NCI-H226 lung
[23] = test system: MOLT-4 leukemia
[24] = test system: NCI-H522 lung
[25] = test system: A498 renal
[26] = test system: HCC-2998 colon
[27] = test system: SR leukemia
[28] = test system: CCRF-CEM leukemia
[29] = test system: M19-MEL melanoma
[30] = test system: A549 NSCLC
[31] = test system: LOX IMVI melanoma
[32] = test system: LXFL 529 NSCLC
[33] = test system: HT29 colon
[34] = test system: HL-60(TB) leukemia
[35] = test system: U251 CNS
[36] = test system: SK-MEL-5 melanoma
[37] = test system: EKVX NSCLC
[38] = test system: IGROV1 ovarian
[39] = test system: K-562 leukemia
[40] = test system: UACC-257 melanoma
[41] = test system: SK-OV-3 ovarian
[42] = test system: TK-10 renal
[43] = test system: RPMI-8226 leukemia
[44] = test system: DMS 273 small cell lung
[45] = test system: COLO 205 colon
[46] = test system: XF 498 CNS
[47] = test system: SNB-75 CNS
[48] = test system: NCI-H460 lung
[49] = test system: SK-MEL-2 melanoma
[50] = test system: SN12C renal
[51] = test system: SNB-19 CNS
[52] = test system: SK-MEL-28 melanoma
[53] = test system: DLD-1 colon
[54] = test system: SF-295 CNS
[55] = test system: OVCAR-4 ovarian
[56] = test system: SW-620 colon
[57] = test system: SNB-78 CNS
[58] = test system: UACC-62 melanoma
[59] = test system: HOP-92 NSCLC

**Q.** What does the source list for CC(=O)Oc1ccc(O)c2c1CCCC2?
**A.** TGI [1]: > 100 µM; TGI [2]: > 91.1 µM; TGI [3]: > 100 µM; TGI [4]: > 61.2 µM; TGI [5]: 25.9 µM; TGI [6]: > 100 µM; TGI [7]: > 100 µM; TGI [8]: > 100 µM; TGI [9]: > 100 µM; TGI [10]: 18.4 µM; TGI [11]: > 100 µM; TGI [12]: > 64.5 µM; TGI [13]: > 54 µM; TGI [14]: > 57.5 µM; TGI [15]: 32.9 µM; TGI [16]: 32.9 µM; TGI [17]: > 68.2 µM; TGI [18]: > 100 µM; TGI [19]: 29.2 µM; TGI [20]: > 73.4 µM; TGI [21]: > 100 µM; TGI [22]: > 100 µM; TGI [23]: 43.5 µM; TGI [24]: 18.1 µM; TGI [25]: > 31.6 µM; TGI [26]: > 100 µM; TGI [27]: 16.3 µM; TGI [28]: 47.6 µM; TGI [29]: 18.4 µM; TGI [30]: > 100 µM; TGI [31]: 36.3 µM; TGI [32]: 31.2 µM; TGI [33]: > 100 µM; TGI [34]: 14.1 µM; TGI [35]: > 100 µM; TGI [36]: > 63.3 µM; TGI [37]: > 100 µM; TGI [38]: > 100 µM; TGI [39]: 54.6 µM; TGI [40]: > 91.1 µM; TGI [41]: > 100 µM; TGI [42]: 49.6 µM; TGI [43]: 66.4 µM; TGI [44]: > 64100 nM; TGI [45]: 55.6 µM; TGI [46]: 30 µM; TGI [47]: > 100 µM; TGI [48]: > 31.6 µM; TGI [49]: > 100 µM; TGI [50]: > 65.9 µM; TGI [51]: > 100 µM; TGI [52]: > 100 µM; TGI [53]: 48.5 µM; TGI [54]: > 100 µM; TGI [55]: 33.2 µM; TGI [56]: 39.6 µM; TGI [57]: 40.2 µM; TGI [58]: > 100 µM

**Q.** CC(C)=CC1CCc2ccccc2N1S(=O)(=O)c1ccc(C)cc1 (centres undefined) was tested. Which TGI [1] did it give?
**A.** The TGI was over 31.6 µM.

**Q.** What about the TGI [2] of the same compound?
**A.** Its TGI is 5.7 µM.

**Q.** And the TGI [3]?
**A.** The TGI was over 100 µM.

**Q.** What about the TGI [4] of the same compound?
**A.** Its TGI is 51.5 µM.

**Q.** What about the TGI [5] of the same compound?
**A.** Its TGI is 4.25 µM.

**Q.** What about the TGI [6] of the same compound?
**A.** The TGI was over 100 µM.

**Q.** And the TGI [7]?
**A.** Its TGI is 85.8 µM.

**Q.** What about the TGI [8] of the same compound?
**A.** The TGI was 3.14 µM.

**Q.** And the TGI [9]?
**A.** Its TGI is 14 µM.

**Q.** What about the TGI [10] of the same compound?
**A.** Its TGI is over 31.6 µM.

**Q.** What about the TGI [11] of the same compound?
**A.** Its TGI is 3.12 µM.

**Q.** What about the TGI [12] of the same compound?
**A.** Its TGI is over 100 µM.

**Q.** And the TGI [13]?
**A.** The TGI was 4.12 µM.

**Q.** And the TGI [14]?
**A.** Its TGI is 5.14 µM.

**Q.** And the TGI [15]?
**A.** Its TGI is over 31.3 µM.

**Q.** What about the TGI [16] of the same compound?
**A.** The TGI was 6.69 µM.

**Q.** What about the TGI [17] of the same compound?
**A.** Its TGI is 7.38 µM.

**Q.** And the TGI [18]?
**A.** Its TGI is 6.16 µM.

**Q.** What about the TGI [19] of the same compound?
**A.** Its TGI is over 31.6 µM.

**Q.** And the TGI [21]?
**A.** Its TGI is 12.1 µM.

**Q.** And the TGI [22]?
**A.** Its TGI is 6.05 µM.

**Q.** What about the TGI [23] of the same compound?
**A.** Its TGI is 10.3 µM.

**Q.** And the TGI [24]?
**A.** The TGI was 5.77 µM.

**Q.** What about the TGI [25] of the same compound?
**A.** Its TGI is 6.98 µM.

**Q.** What about the TGI [26] of the same compound?
**A.** The TGI was 7.95 µM.

**Q.** What about the TGI [59] of the same compound?
**A.** Its TGI is 7.61 µM.

**Q.** What about the TGI [28] of the same compound?
**A.** Its TGI is over 100 µM.

**Q.** And the TGI [29]?
**A.** Its TGI is 13.7 µM.

**Q.** And the TGI [30]?
**A.** The TGI was 18.9 µM.

**Q.** And the TGI [31]?
**A.** Its TGI is 12.6 µM.

**Q.** What about the TGI [32] of the same compound?
**A.** The TGI was over 47.2 µM.

**Q.** What about the TGI [33] of the same compound?
**A.** The TGI was 3.24 µM.

**Q.** What about the TGI [35] of the same compound?
**A.** Its TGI is 4.58 µM.

**Q.** What about the TGI [36] of the same compound?
**A.** The TGI was 5.12 µM.

**Q.** And the TGI [37]?
**A.** Its TGI is over 100 µM.

**Q.** What about the TGI [38] of the same compound?
**A.** The TGI was over 100 µM.

**Q.** And the TGI [39]?
**A.** The TGI was over 100 µM.

**Q.** What about the TGI [40] of the same compound?
**A.** The TGI was 23.6 µM.

**Q.** And the TGI [41]?
**A.** The TGI was over 100 µM.

**Q.** And the TGI [42]?
**A.** The TGI was over 31.6 µM.

**Q.** What about the TGI [43] of the same compound?
**A.** The TGI was 5.07 µM.

**Q.** And the TGI [44]?
**A.** The TGI was 1590 nM.

**Q.** What about the TGI [45] of the same compound?
**A.** The TGI was 5.4 µM.

**Q.** What about the TGI [46] of the same compound?
**A.** The TGI was 26.8 µM.

**Q.** And the TGI [47]?
**A.** Its TGI is over 25.1 µM.

**Q.** What about the TGI [48] of the same compound?
**A.** Its TGI is 8.02 µM.

**Q.** And the TGI [49]?
**A.** The TGI was 7.12 µM.

**Q.** And the TGI [50]?
**A.** The TGI was over 100 µM.

**Q.** And the TGI [51]?
**A.** The TGI was over 100 µM.

**Q.** And the TGI [52]?
**A.** Its TGI is over 40.1 µM.

**Q.** And the TGI [53]?
**A.** The TGI was over 100 µM.

**Q.** What about the TGI [54] of the same compound?
**A.** The TGI was over 21.4 µM.

**Q.** What about the TGI [55] of the same compound?
**A.** The TGI was over 31.6 µM.

**Q.** And the TGI [56]?
**A.** Its TGI is over 100 µM.

**Q.** What about the TGI [57] of the same compound?
**A.** Its TGI is over 100 µM.

**Q.** And the TGI [58]?
**A.** Its TGI is 16.1 µM.
